Non-standard residues stand in square brackets, D forms with d. Aib = CC(C)(N)C(=O)O
Tested on: SKOV-3 cells
Assay: GFP-SKOV-3 cell adhesion onto mesothelium (HPMC monolayer)
Type: cell-based, Human
Details: means of three independent experiments in triplicate
Method: HPMCs (1 × 10^5 cells/well) suspended in growth medium, were seeded in 24-well plates and allowed to adhere for about 20 h until they form a confluent monolayer, prior to seeding GFP-tagged EOC cells suspended in growth medium plus diluents or 10 nM RI-3. At the indicated times, plates were accurately washed with PBS and cell-associated fluorescence was assessed by a fluorescence plate reader a fluorescence plate reader (Victor 3, Perkin Elmer), using 485 nm excitation and 535 nm emission filters. The experiments were performed three times in triplicate.

Ac-[dY][dR][Aib][dR]-NH2 [RI-3, retro-inverso peptide, uPAR/FPR1 antagonist]
reduction of cell associated fluorescence (SKOV-3 adhesion to mesothelium) (10 nM RI-3, after 5 min): 57% | reduction of cell associated fluorescence (SKOV-3 adhesion to mesothelium) (10 nM RI-3, after 10 min): 47% | reduction of cell associated fluorescence (SKOV-3 adhesion to mesothelium) (10 nM RI-3, after 20 min): 58% | reduction of cell associated fluorescence (SKOV-3 adhesion to mesothelium) (10 nM RI-3, after 40 min): 54%
